Assay results: ChEMBL document CHEMBL1828523, “Synthesis and stereospecificity of 4,5-disubstituted oxazolidinone ligands binding to T-box riboswitch RNA” (J Med Chem, 2011)

Tests used:
Nucleic Acid [1] = assay: Binding affinity to Bacillus subtilis antiterminator AM1A RNA model after 130 mins by FRET assay; assay type: nucleic-acid assay
Nucleic Acid [2] = assay: Binding affinity to Bacillus subtilis antiterminator AM1A RNA model after 70 mins by FRET assay; assay type: nucleic-acid assay

For O=C(Cc1ccccc1)OC[C@@H]1OC(=O)N[C@H]1CN1CCN(c2ccccc2)CC1, the Kd (Nucleic Acid [1]) was 16 µM.
With CC(=O)c1ccc(NC(=O)OC[C@@H]2OC(=O)N[C@H]2CN2CCN(c3ccccc3)CC2)cc1 the Kd (Nucleic Acid [1]) was 1.6 µM.
Work on O=C(Cc1ccccc1)OC[C@H]1OC(=O)N[C@@H]1CN1CCN(c2ccccc2)CC1 yielded a Kd (Nucleic Acid [1]) of 12 µM.
Work on CC(=O)c1ccc(NC(=O)OC[C@H]2OC(=O)N[C@@H]2CN2CCN(c3ccccc3)CC2)cc1 yielded a Kd (Nucleic Acid [1]) of 3 µM.
Work on O=C(Cc1ccccc1)OC[C@H]1OC(=O)N[C@H]1CN1CCN(c2ccccc2)CC1 (racemic) yielded a Kd (Nucleic Acid [2]) of 5.1 µM and a Kd (Nucleic Acid [1]) greater than 100 µM.
Molecule CC(=O)c1ccc(NC(=O)OC[C@H]2OC(=O)N[C@H]2CN2CCN(c3ccccc3)CC2)cc1 (racemic) has a Kd (Nucleic Acid [1]) of 1.8 µM.
